{"source": "patent US20060148646A1", "about": "“Controlled release fertilizers containing calcium sulfate and processes for making same” (priority 2004, published 2006)", "key": {"[1]": {"test": "Controlled Release Soil Test (irrigated soil burial test)", "assay_type": "physicochemical", "from_the_text": "To measure the relative solubilities of the products in soil, an irrigated soil burial test (“Controlled Release Soil Test”) was devised such that granules could be retrieved for measurement of their nitrogen content. The following is a description of the test.\nControlled Release Soil Test\nProcedure for Controlled Release Soil Test\n1. Screen the sample to obtain −6+7 Tyler mesh granules for the test.\n2. Label a freezer container with the test description.\n3. Place the freezer container on the 1200 g balance and tare out.\n4. Place 300 g of potting soil with a 40% moisture content into the container and record the weight.\n5. Over the soil place two (2) pieces of fiberglass mesh with 14 meshes to the inch and 1/16 inch openings.\n6. Tare out the container with the soil and fiberglass mesh screens.\n7. Spread 5 grams of −6+7 Tyler mesh granules over the screen in a single layer and record the weight.\n8. Place a large square of fiberglass mesh over the granules, with a stainless steel screen cut to fit over it, so that the shape of the container has been mirrored.\n9. Once this is shaped, tare out the container and add 150 g of soil and record the weight.\n10. Repeat this process for each sample to be tested (in triplet if possible).\n11. After all containers are completed, fill a mist spray bottle with de-ionized water and prime.\n12. Tare out the weight of the primed mist bottle.\n13. Mist 4 g of water into each container and immediately place the lid on container and seal.\n14. After the fertilizer granules have been submerged in a humid soil environment for the allotted time (9 hours, 24 hours, and 3 days), the 150 g of soil is removed from the container.\n15. Weigh to the nearest 0.0001 g in aluminum weigh pan and tare out.\n16. Gently remove the two pieces of fiberglass mesh, which contains the remaining fertilizer granules.\n17. Transfer the granules to the aluminum weigh pan and record the weight of the fertilizer granules.\n18. Place the fertilizer granules in a laboratory oven to dry at low temperature (50° C.) for 13 hours.\n19. Remove the dry sample from the oven, weigh to the nearest 0.0001 g and record weight.\n20. Place the dry fertilizer sample into a 125 mL plastic sample bottle containing 20 g of de-ionized water.\n21. Allow the sample to dissolve for 3 hours.\n22. Place approximately 1 ml aliquot of the sample solution onto the sample stage of a refractometer (e.g., Abbe Refractometer).\n23. Record the refractive index and temperature of the solution.\n24. Calculate the percent urea retained from the original fertilizer sample.\nTo measure the slow or controlled release of the present compositions a Controlled Release Soil Test was employed, described as follows. […]"}, "[2]": {"test_system": "Hybrid “419” Bermudagrass", "test": "Digital image analysis, measured color hue (Example 18)", "assay_type": "in vivo", "parameters": "unit not given here", "settings": "mean of 4 repetitions; fertilizer applied Apr. 19, 2004", "procedure": "(§1) The effect of nitrogen type was evaluated on the quality of hybrid bermudagrass grown under golf course conditions. Five fertilizer compositions were tested which included […] of the present invention, urea and Scotts Turf Builder. Nitrogen sources were applied individually at a rate of 1 lb N/1,000 ft^2 on Apr. 19, 2004. Field test plots were rated weekly for visual quality and scanned for digital image analysis.\n(§2) Research was conducted on a fairway at Pleasant Valley Country Club in Little Rock, Arkansas. The hybrid “419” was bermudagrass was grown and was mowed at 0.5 inches height and clippings were not collected. Nitrogen sources were applied at a rate of 1 lb N/1,000 ft^2 on Apr. 19, 2004. Plots were 3 ft.×6 ft. Air temperatures on April 19th were 65-75° F. Turf quality ratings were made weekly by a single evaluator. Quality ratings considered turf growth and color. A rating of 6 was considered the minimum acceptable turf; a rating of 9 was not considered favorable from a management standpoint since growth was excessive and required frequent mowing. A visual rating of 8 would be considered excellent. Plots were also evaluated weekly using a digital image analysis. Digital images were taken with a Nikon CoolPix 880 camera with a shutter speed of 1/30 sec. and an aperture of f/2.8. Images were downloaded to a personal computer for subsequent analysis. Ratings were terminated when the nitrogen treated plots could not be visually separated from the control. Treatments consisted of 4 single plot replications. The experimental design was a completely randomized design."}, "[3]": {"test_system": "Hybrid “419” Bermudagrass", "test": "Visual turf quality rating, golf course fairway (Example 18)", "assay_type": "in vivo", "procedure": "as §1, §2"}, "[4]": {"settings": "1 lb N/1,000 ft^2 applied Apr. 19, 2004"}}, "data": [{"smiles": "N.N.O=S(=O)(O)O", "note": "[AS, (NH4)2SO4]", "values": [{"measurement": "Control Release Soil Test 9 HR (nitrogen retained)", "setting": "[1]; ammonium sulfate based granulation products, 9 hours", "value": 56.8, "unit": "%"}, {"measurement": "Control Release Soil Test 24 HR (nitrogen retained)", "setting": "[1]; ammonium sulfate based granulation products, 24 hours", "value": 30.0, "unit": "%"}, {"measurement": "Control Release Soil Test 3 DAY (nitrogen retained)", "setting": "[1]; ammonium sulfate based granulation products, 3 days", "value": 0, "unit": "%"}]}, {"smiles": "NC(N)=O", "note": "[Urea, Carbamide]", "values": [{"measurement": "Hue Jun. 1, 2004", "setting": "[2]", "value": 31.589}, {"measurement": "Hue Jun. 7, 2004", "setting": "[2]", "value": 27.101}, {"measurement": "Hue Jun. 14, 2004", "setting": "[2]", "value": 28.324}, {"measurement": "Hue Jun. 21, 2004", "setting": "[2]", "value": 25.750}, {"measurement": "Hue May 3, 2004", "setting": "[2]", "value": 29.085}, {"measurement": "Hue May 10, 2004", "setting": "[2]", "value": 30.702}, {"measurement": "Hue May 17, 2004", "setting": "[2]", "value": 30.920}, {"measurement": "Hue May 24, 2004", "setting": "[2]", "value": 29.943}, {"measurement": "Visual Turf Quality Jun. 1, 2004", "setting": "[3]; [4]", "value": 7.7, "unit": "cde"}, {"measurement": "Visual Turf Quality Jun. 7, 2004", "setting": "[3]; [4]", "value": 7.7, "unit": "bcde"}, {"measurement": "Visual Turf Quality Jun. 14, 2004", "setting": "[3]; [4]", "value": 7.6, "unit": "bcd"}, {"measurement": "Visual Turf Quality Jun. 21, 2004", "setting": "[3]; [4]", "value": 7.5, "unit": "bc"}, {"measurement": "Visual Turf Quality May 3, 2004", "setting": "[3]; [4]", "value": 7.5, "unit": "abcd"}, {"measurement": "Visual Turf Quality May 9, 2004", "setting": "[3]; [4]", "value": 7.3, "unit": "bcd"}, {"measurement": "Visual Turf Quality May 16, 2004", "setting": "[3]; [4]", "value": 7.5, "unit": "abcd"}, {"measurement": "Visual Turf Quality May 24, 2004", "setting": "[3]; [4]", "value": 7.7, "unit": "bcdef"}, {"measurement": "Visual Turf Quality Apr. 19, 2004", "setting": "[3]; day of application, 1 lb N/1,000 ft^2, 6 = minimum acceptable, 8 excellent", "value": 6.5}, {"measurement": "time to complete dissolution in the Controlled Release Soil Test", "setting": "[1]", "value": "≤ 9", "unit": "h"}]}]}
